Structures can show the parent of a compound that is named as a salt.
Molecular target: T1, hNPRA (Homo sapiens, UniProt P16066)
T1 construct: expressed in transfected cells
T1 sequence (P16066 33-1061): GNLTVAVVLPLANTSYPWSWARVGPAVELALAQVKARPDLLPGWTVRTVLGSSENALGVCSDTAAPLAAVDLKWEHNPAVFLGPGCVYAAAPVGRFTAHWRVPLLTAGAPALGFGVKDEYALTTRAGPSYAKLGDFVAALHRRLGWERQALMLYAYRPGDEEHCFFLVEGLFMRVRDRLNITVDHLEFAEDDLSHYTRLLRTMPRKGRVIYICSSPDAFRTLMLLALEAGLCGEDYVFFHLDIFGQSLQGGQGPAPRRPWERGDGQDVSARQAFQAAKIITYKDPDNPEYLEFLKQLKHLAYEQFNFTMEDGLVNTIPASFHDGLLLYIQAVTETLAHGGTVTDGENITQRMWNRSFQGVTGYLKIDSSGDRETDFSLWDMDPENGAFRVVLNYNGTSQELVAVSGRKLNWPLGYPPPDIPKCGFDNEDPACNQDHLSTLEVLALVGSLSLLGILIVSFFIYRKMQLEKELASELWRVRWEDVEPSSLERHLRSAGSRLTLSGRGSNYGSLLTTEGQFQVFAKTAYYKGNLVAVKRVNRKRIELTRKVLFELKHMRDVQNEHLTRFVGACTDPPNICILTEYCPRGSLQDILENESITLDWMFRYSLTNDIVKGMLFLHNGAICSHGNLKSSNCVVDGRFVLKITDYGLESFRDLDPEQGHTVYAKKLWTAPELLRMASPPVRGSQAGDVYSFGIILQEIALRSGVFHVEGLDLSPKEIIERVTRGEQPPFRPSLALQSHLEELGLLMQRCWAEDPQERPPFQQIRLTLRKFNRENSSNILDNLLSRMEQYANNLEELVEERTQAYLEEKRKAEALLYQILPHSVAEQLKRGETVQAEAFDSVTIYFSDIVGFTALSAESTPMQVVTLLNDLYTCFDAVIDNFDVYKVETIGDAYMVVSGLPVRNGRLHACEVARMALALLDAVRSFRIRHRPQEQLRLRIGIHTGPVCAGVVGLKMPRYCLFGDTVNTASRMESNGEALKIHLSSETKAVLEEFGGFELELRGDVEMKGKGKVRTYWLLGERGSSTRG
Experiment: NPRA Functional Cell Assay (cGMP HTRF, NPRA HEK JumpIn stable cells)
Format: cell-based
Conditions: cGMP production, 1 hour at 37° C., 10-point dose response
Procedure, shortened: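 cGMP HTRF read-out after 1 hour compound treatment at 37° C. of human NPRA-expressing HEK JumpIn cells, 1500 cells/well, in buffer with phosphodiesterase inhibitors IBMX and RO20 (100 uM each). Signal converted to [cGMP] by calibration curve; EC50s fitted by 4-parameter logistic; 50 nM h-ANP as positive response.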

| Structure (SMILES) | EC50 |
| --- | --- |
| O=C1CN(c2ccc([C@@H](CCN3CCC(O)CC3)NC(=O)c3nc4cc5c(nc4s3)CC[C@H](C3(C(F)(F)F)CC3)C5)cn2)C(=O)N1 [Example 221, (S)-N-((R)-1-(6-(2,4-dioxoimidazolidin-1-yl)pyridin-3-yl)-3-(4-hydroxypiperidin-1-yl)propyl)-7-(1-(trifluoromethyl)cyclopropyl)-5,6,7,8-tetrahydrothiazolo[5,4-b]quinoline-2-carboxamide] | 1140 nM |
| CC(C)(C)[C@H]1CCc2nc3sc(C(=O)N[C@H](CCN4CCC(O)CC4)c4cccc(C(=O)N5CC(N)C5)c4)nc3cc2C1 (racemic) [Example 147, rac-(7S)-7-tert-butyl-N-[rac-(1R)-1-[3-(3-aminoazetidine-1-carbonyl)phenyl]-3-(4-hydroxy-1-piperidyl)propyl]-5,6,7,8-tetrahydrothiazolo[5,4-b]quinoline-2-carboxamide] | 640 nM |
| CC(C)(C)[C@H]1CCc2nc3sc(C(=O)N[C@H](CCN4CCC(O)CC4)c4cccc(C(=O)N5CC(O)(C(F)(F)F)C5)c4)nc3cc2C1 (racemic) [Example 153, rac-(7S)-7-tert-butyl-N-[rac-(1R)-3-(4-hydroxy-1-piperidyl)-1-[3-[3-hydroxy-3-(trifluoromethyl)azetidine-1-carbonyl]phenyl]propyl]-5,6,7,8-tetrahydrothiazolo[5,4-b]quinoline-2-carboxamide] | 716 nM |
| CC(C)(C)[C@H]1CCc2nc3sc(C(=O)N[C@H](CCN[C@@H]4C[C@H](CO)[C@@H](O)[C@H]4O)c4ccc(-c5ccc(=O)[nH]c5)cc4)cc3cc2C1 (racemic) [Example 62, [rac-(1R,2S,3R,4R)-2,3-dihydroxy-4-(hydroxymethyl)cyclopentyl]-[rac-(3R)-3-[4-(6-oxo-1H-pyridin-3-yl)phenyl]-3-[rac-(6S)-6-tert-butyl-5,6,7,8-tetrahydrothieno[2,3-b]quinoline-2-carbonyl]amino]propyl] ammonium;formate] | 1130 nM |
| CC(C)(C)[C@H]1CCc2nc3sc(C(=O)N[C@H](CCN4CCC(C(F)F)CC4)c4ccc(-c5ccc(=O)[nH]c5)cc4)cc3cc2C1 (racemic) [Example 60, rac-(6S)-6-tert-butyl-N-[rac-(1R)-3-[4-(difluoromethyl)piperidin-1-ium-1-yl]-1-[4-(6-oxo-1H-pyridin-3-yl)phenyl]propyl]-5,6,7,8-tetrahydrothieno[2,3-b]quinoline-2-carboxamide;formate] | 1010 nM |
| CC(C)(C)[C@H]1CCc2nc3sc(C(=O)N[C@H](CCN4CCC(O)CC4)c4cccc(C(=O)NC5CNC(=O)C5)c4)nc3cc2C1 (mixture of isomers) [Example 155, rac-(7S)-7-tert-butyl-N-[rac-(1R)-3-(4-hydroxy-1-piperidyl)-1-[3-[(5-oxopyrrolidin-3-yl)carbamoyl]phenyl]propyl]-5,6,7,8-tetrahydrothiazolo[5,4-b]quinoline-2-carboxamide] | 766 nM |
| Cc1n[nH]c(C)c1-c1ccc([C@@H](CCN2CCC(O)CC2)NC(=O)c2nc3cc4c(nc3s2)CC[C@H](C(C)(C)C)C4)cc1 (racemic) [Example 173, rac-(7S)-7-tert-butyl-N-[rac-(1R)-1-[4-(3,5-dimethyl-1H-pyrazol-4-yl)phenyl]-3-(4-hydroxy-1-piperidyl)propyl]-5,6,7,8-tetrahydrothiazolo[5,4-b]quinoline-2-carboxamide] | 959 nM |
| CCN(CC)CCC(NC(=O)c1cc2cc3c(nc2s1)CC[C@H](C(C)(C)C)C3)c1ccccc1 (stereo partly drawn) [Example 244, (6S)-6-tert-butyl-N-[3-(diethylamino)-1-phenylpropyl]-5,6,7,8-tetrahydrothieno[2,3-b]quinoline-2-carboxamide] | 2200 nM |
| CN(C)[C@H]1CN(CC[C@@H](NC(=O)c2cc3cc4c(nc3s2)CC[C@H](C(C)(C)C)C4)c2ccc(-c3ccc(=O)[nH]c3)cc2)C[C@@H]1O (racemic) [Example 70, rac-(6S)-6-tert-butyl-N-[rac-(1R)-1-[4-(6-oxo-1H-pyridin-3-yl)phenyl]-3-[rac-(3S,4S)-3-(dimethylamino)-4-hydroxy-pyrrolidin-1-ium-1-yl]propyl]-5,6,7,8-tetrahydrothieno[2,3-b]quinoline-2-carboxamide;formate] | 1970 nM |
| CN(C)S(=O)(=O)Nc1ccc([C@@H](CCN2CCCOCC2)NC(=O)c2nc3cc4c(nc3s2)CC[C@H](C(C)(C)C)C4)cn1 (racemic) [Example 205, rac-(7S)-7-tert-butyl-N-[rac-(1R)-1-[6-(dimethylsulfamoylamino)-3-pyridyl]-3-(1,4-oxazepan-4-ium-4-yl)propyl]-5,6,7,8-tetrahydrothiazolo[5,4-b]quinoline-2-carboxamide; 2,2,2-trifluoroacetate] | 563 nM |
| CC(C)(C)[C@H]1CCc2nc3sc(C(=O)N[C@H](CCN4CCC5OCCCC5C4)c4ccc(-c5cnc(O)c(F)c5)cc4)nc3cc2C1 (mixture of isomers) [Example 204, rac-(7S)-7-tert-butyl-N-[rac-(1R)-3-(3,4,4a,5,6,7,8,8a-octahydro-2H-pyrano[3,2-c]pyridin-6-ium-6-yl)-1-[4-(5-fluoro-6-hydroxy-3-pyridyl)phenyl]propyl]-5,6,7,8-tetrahydrothiazolo[5,4-b]quinoline-2-carboxamide; formate] | 1290 nM |

Compounds with a lower EC50, results first:

| EC50 | Structure (SMILES) |
| --- | --- |
| 96.7 nM | CC(C)(C)[C@H]1CCc2nc3sc(C(=O)N[C@H](CCN4CCC(O)CC4)c4cccc(C(=O)N5CC6(CCCNC6)C5)c4)nc3cc2C1 (racemic) [Example 131, rac-(7S)-7-tert-butyl-N-[rac-(1R)-1-[3-(2,8-diazaspiro[3.5]nonane-2-carbonyl)phenyl]-3-(4-hydroxy-1-piperidyl)propyl]-5,6,7,8-tetrahydrothiazolo[5,4-b]quinoline-2-carboxamide] |
| 446 nM | CN(C)C1CCN(CCC(NC(=O)c2cc3cc4c(nc3s2)CCC(C(C)(C)C)C4)c2ccc(-c3ccc(=O)[nH]c3)cc2)CC1 (racemic) [Example 28, dimethyl-[1-[rac-(3R)-3-[4-(6-oxo-1H-pyridin-3-yl)phenyl]-3-[[rac-(6S)-6-tert-butyl-5,6,7,8-tetrahydrothieno[2,3-b]quinoline-2-carbonyl]amino]propyl]-4-piperidyl]ammonium;formate] |
| 230 nM | CN(C)CC[C@@H](NC(=O)c1nc2cc3c(nc2s1)CC[C@H](C(C)(C)C)C3)c1cccc(C(=O)N[C@H]2CCNC2)c1 (racemic) [Example 89, rac-(7S)-7-tert-butyl-N-[rac-(1R)-3-(dimethylamino)-1-[3-[rac-(3S)-pyrrolidin-3-yl]carbamoyl]phenyl] propyl]-5,6,7,8-tetrahydrothiazolo[5,4-b] quinoline-2-carboxamide] |
| 198 nM | CC(C)(C)[C@H]1CCc2nc3sc(C(=O)N[C@H](CCN4CCC(C(=O)O)CC4)c4ccc(-c5cnc(O)c(F)c5)cc4)nc3cc2C1 [Example 224, sodium 1-((R)-3-((S)-7-(tert-butyl)-5,6,7,8-tetrahydrothiazolo[5,4-b]quinoline-2-carboxamido)-3-(4-(5-fluoro-6-hydroxypyridin-3-yl)phenyl)propyl)piperidine-4-carboxylate] |
| 357 nM | CC(C)(C)[C@H]1CCc2nc3sc(C(=O)N[C@H](CCN4CCC(O)CC4)c4ccc(-c5cc[n+]([O-])nc5)cc4)nc3cc2C1 (racemic) [Example 163, rac-(7S)-7-tert-butyl-N-[rac-(1R)-3-(4-hydroxypiperidin-1-ium-1-yl)-1-[4-(1-oxidopyridazin-1-ium-4-yl)phenyl]propyl]-5,6,7,8-tetrahydrothiazolo[5,4-b]quinoline-2-carboxamide; 2,2,2-trifluoroacetate] |
